{"source": "paper PMC7501995", "about": "(Cell metabolism, 2020)", "key": {"[1]": {"test_system": "C57BL/6J mice rendered diabetic by multiple low-dose STZ", "assay": "Multiple low-dose STZ-induced diabetes in C57BL/6J mice", "assay_type": "in vivo, mouse", "details": "STZ mice"}, "human subjects with T1D": {"test_system": "human subjects with T1D", "details": "ref Ovalle et al., 2018; cited from earlier work"}}}
{"molecule": "OC[C@H]1O[C@@H](c2ccc(Cl)c(Cc3ccc(O[C@H]4CCOC4)cc3)c2)[C@H](O)[C@@H](O)[C@@H]1O", "note": "[empagliflozin, reference compound]", "values": [{"measurement": "glucose homeostasis", "setting": "[1]; empagliflozin 10 mg/kg/day in drinking water", "result": "improved glucose homeostasis"}]}
{"molecule": "CN(C)C(=N)N=C(N)N", "note": "[metformin, reference compound]", "values": [{"measurement": "glucose homeostasis", "setting": "[1]; metformin 250 mg/kg/day in drinking water", "result": "improved glucose homeostasis"}]}
{"molecule": "COc1ccc(CCN(C)CCCC(C#N)(c2ccc(OC)c(OC)c2)C(C)C)cc1OC", "note": "(stereo not drawn) [verapamil]", "values": [{"measurement": "effect in randomized controlled trial in human subjects with T1D", "setting": "human subjects with T1D", "result": "beneficial effects"}]}
